Reference: PubChem BioAssay AID330 (DTP/NCI, 2004)
Several values for one entry are separate records, joined by “and”; a condition that tells them apart may be missing. Equal entries are not always repeated. Inconclusive results and toxic doses are left out. Bridge positions count the residues as written; N and C are the ends. Peptide text beside a SMILES is read from it. I, II: the chains in the order shown.

Tested on: P388 leukemia ip, CD2F1 mice, survival T/C
Experiment: NCI In Vivo Anticancer Drug Screen. Data for tumor model P388 Leukemia (intraperitoneal) in CD2F1 (CDF1) mice
Settings: endpoint: median survival time, higher = longer survival
How it was run: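 Mice carrying the transplanted tumor received test compound or vehicle. Survival was recorded in each group, and the value is the treated-group measurement divided by that of the vehicle-treated control group.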

[1] = dose: 50.0 mg/kg/injection, schedule: Q01DX005 (ip), vehicle: saline with Tween-80
[2] = dose: 100.0 mg/kg/injection, schedule: Q01DX005 (ip), vehicle: saline with Tween-80
[3] = dose: 200.0 mg/kg/injection, schedule: Q01DX005 (ip), vehicle: saline with Tween-80
[4] = dose: 60.0 mg/kg/injection, schedule: Q01DX005 (ip), vehicle: saline with Tween-80
[5] = dose: 120.0 mg/kg/injection, schedule: Q01DX005 (ip), vehicle: saline with Tween-80
[6] = dose: 240.0 mg/kg/injection, schedule: Q01DX005 (ip), vehicle: saline with Tween-80
[7] = dose: 50.0 mg/kg/injection, schedule: Q01DX009 (ip), vehicle: saline with Tween-80
[8] = dose: 100.0 mg/kg/injection, schedule: Q01DX009 (ip), vehicle: saline with Tween-80
[9] = dose: 200.0 mg/kg/injection, schedule: Q01DX009 (ip), vehicle: saline with Tween-80

Q: `Cc1ccc([NH-])c(C(=O)O)c1.Cc1ccc([NH-])c(C(=O)O)c1.[Cu+2]` was tested. Which T/C (dose: 12.5 mg/kg/injection, schedule: Q01DX005 (ip), vehicle: saline with Tween-80) did it give?
A: Its T/C is 96 % of control.

Q: What about the T/C (dose: 25.0 mg/kg/injection, schedule: Q01DX005 (ip), vehicle: saline with Tween-80) of the same molecule?
A: The T/C was 100 % of control.

Q: And the T/C [1]?
A: Its T/C is 94 % of control.

Q: With `CC(=O)Nc1cc(S(=O)(=O)O)cc2c(N=Nc3ccc(C(=O)Nc4ccc(N=Nc5ccc(S(=O)(=O)O)cc5)cc4)cc3)c(S(=O)(=O)O)cc(O)c12` as the molecule, how does the T/C [1] read?
A: Its T/C is 93 % of control.

Q: And the T/C [2]?
A: The T/C was 90 % of control.

Q: And the T/C [3]?
A: The T/C was 101 % of control.

Q: How did the T/C (dose: 100.0 mg/kg/injection, schedule: Q05DX002 (ip), vehicle: saline with Tween-80) turn out when `COCc1c(C)oc2c(C)c3oc(=O)cc(C)c3cc12` was run?
A: Its T/C is 101 % of control.

Q: What about the T/C (dose: 200.0 mg/kg/injection, schedule: Q05DX002 (ip), vehicle: saline with Tween-80) of the same molecule?
A: The T/C was 95 % of control.

Q: And the T/C (dose: 400.0 mg/kg/injection, schedule: Q05DX002 (ip), vehicle: saline with Tween-80)?
A: Its T/C is 107 % of control.

Q: Which T/C (dose: 2.0 micrograms/kg/injection, schedule: Q01DX009 (ip), vehicle: distilled water + alcohol) does the source give for `COc1cc2cc(c1Cl)N1CC(=O)C(C)(O)C(=O)N(C)C(C)C(=O)OC(CC1=O)C1(C)OC1C(C)C1CC(O)(NC(=O)O1)C(OC)/C=C\C=C(\C)C2OC` (stereo not given) here?
A: Its T/C is 151 % of control.

Q: What about the T/C (dose: 4.0 micrograms/kg/injection, schedule: Q01DX009 (ip), vehicle: distilled water + alcohol) of the same molecule?
A: The T/C was 153 % of control and 168 % of control.

Q: What about the T/C (dose: 16.0 micrograms/kg/injection, schedule: Q01DX009 (ip), vehicle: distilled water + alcohol) of the same molecule?
A: The T/C was 210 % of control.

Q: Which T/C (dose: 50.0 mg/kg/injection, schedule: Q01DX005 (ip), vehicle: Klucel (hydroxypropylcellulose) (HPC)) does the source give for `CC(C)CC(NC(=O)C(N)CSSCC(N)C(=O)NC(CC(C)C)C(=O)O)C(=O)O` (stereo not drawn) (I: H-Cys-Leu-OH / II: H-Cys-Leu-OH; disulfide I:1-II:1; configuration not given here) here?
A: Its T/C is 106 % of control.

Q: What about the T/C (dose: 100.0 mg/kg/injection, schedule: Q01DX005 (ip), vehicle: Klucel (hydroxypropylcellulose) (HPC)) of the same molecule?
A: The T/C was 113 % of control.

Q: And the T/C (dose: 200.0 mg/kg/injection, schedule: Q01DX005 (ip), vehicle: Klucel (hydroxypropylcellulose) (HPC))?
A: Its T/C is 92 % of control.

Q: `Cc1cc(C(F)(F)F)nc2nc3ccccc3n12` was tested. Which T/C (dose: 60.0 mg/kg/injection, schedule: Q01DX005 (ip), vehicle: Klucel (hydroxypropylcellulose) (HPC)) did it give?
A: Its T/C is 101 % of control.

Q: And the T/C (dose: 120.0 mg/kg/injection, schedule: Q01DX005 (ip), vehicle: Klucel (hydroxypropylcellulose) (HPC))?
A: The T/C was 102 % of control.

Q: And the T/C (dose: 240.0 mg/kg/injection, schedule: Q01DX005 (ip), vehicle: Klucel (hydroxypropylcellulose) (HPC))?
A: The T/C was 89 % of control.

Q: What does the source list for `O=c1c(Br)cc2c(-c3ccccc3)c3cc(Br)c(O)c(Br)c3oc-2c1Br`?
A: T/C [4]: 97 % of control; T/C [5]: 97 % of control; T/C [6]: 110 % of control

Q: For `N#CC(c1ccc(Cl)cc1)C(c1ccccc1)c1ccccc1` (stereo not given), which T/C [7] is on record?
A: The T/C was 112 % of control.

Q: What about the T/C [8] of the same molecule?
A: The T/C was 107 % of control.

Q: And the T/C [9]?
A: Its T/C is 112 % of control.

Q: Which results are given for `CCOC(=O)C1(CN2C(=O)c3ccccc3C2=O)C(=O)Nc2ccccc21` (stereo not given)?
A: T/C (dose: 50.0 mg/kg/injection, schedule: Q01DX009 (ip), vehicle: Klucel (hydroxypropylcellulose) (HPC)): 87 % of control; T/C (dose: 100.0 mg/kg/injection, schedule: Q01DX009 (ip), vehicle: Klucel (hydroxypropylcellulose) (HPC)): 87 % of control; T/C (dose: 200.0 mg/kg/injection, schedule: Q01DX009 (ip), vehicle: Klucel (hydroxypropylcellulose) (HPC)): 87 % of control

Q: For `COc1c(OC(C)=O)c(OC(C)=O)cc2c1-c1ccc(OC)c(=O)cc1C(NC(C)=O)CC2` (stereo not given), which T/C (dose: 0.25 mg/kg/injection, schedule: Q01DX005 (ip), vehicle: saline) is on record?
A: The T/C was 117 % of control.

Q: What about the T/C (dose: 0.5 mg/kg/injection, schedule: Q01DX005 (ip), vehicle: saline) of the same molecule?
A: The T/C was 123 % of control.

Q: What about the T/C (dose: 4.0 mg/kg/injection, schedule: Q01DX005 (ip), vehicle: saline) of the same molecule?
A: The T/C was 155 % of control.

Q: What about the T/C (dose: 8.0 mg/kg/injection, schedule: Q01DX005 (ip), vehicle: saline) of the same molecule?
A: The T/C was 163 % of control.

Q: What about the T/C (dose: 16.0 mg/kg/injection, schedule: Q01DX005 (ip), vehicle: saline) of the same molecule?
A: The T/C was 172 % of control.

Q: For `CC1(/C=N/NC(N)=O)NC(=O)NC1=O` (stereo not given), which T/C [1] is on record?
A: Its T/C is 96 % of control.

Q: What about the T/C [2] of the same molecule?
A: The T/C was 103 % of control.

Q: And the T/C [3]?
A: The T/C was 96 % of control.

Q: How did the T/C (dose: 6.25 mg/kg/injection, schedule: Q01DX005 (ip), vehicle: Klucel (hydroxypropylcellulose) (HPC)) turn out when `[Br][Sn]([CH2][Sn]([Br])([c]1ccccc1)[c]1ccccc1)([c]1ccccc1)[c]1ccccc1` was run?
A: Its T/C is 110 % of control.

Q: `Clc1ccc(-c2nnc(-c3ccncc3)o2)c(Cl)c1` was tested. Which T/C [4] did it give?
A: Its T/C is 93 % of control.

Q: What about the T/C [5] of the same molecule?
A: Its T/C is 93 % of control.

Q: And the T/C [6]?
A: Its T/C is 86 % of control.

Q: `CC1=NNB(O)c2ccsc21` was tested. Which T/C [7] did it give?
A: Its T/C is 98 % of control.

Q: What about the T/C [8] of the same molecule?
A: The T/C was 99 % of control.

Q: What about the T/C [9] of the same molecule?
A: The T/C was 108 % of control.

Q: What does the source list for `CCSC(C/C=C/c1ccccc1)S(=O)CC` (stereo not given)?
A: T/C (dose: 100.0 mg/kg/injection, schedule: Q04DX003 (ip), vehicle: saline): 99 % of control; T/C (dose: 200.0 mg/kg/injection, schedule: Q04DX003 (ip), vehicle: saline): 107 % of control; T/C (dose: 400.0 mg/kg/injection, schedule: Q04DX003 (ip), vehicle: saline): 105 % of control
